Article PMC7614232 (Organic & biomolecular chemistry, 2022)
Like-named read-outs stand apart in the source and are kept apart here.

What was measured:
[1] = target: T1, AMAN-2 (Golgi α-mannosidase) (Caenorhabditis elegans, UniProt Q2PJ74); assay: α-mannosidase inhibition assay with pNP-Man, AMAN-2; type: biochemical; conditions: for SI^b = IC50(JBMan)/IC50(AMAN-2): selectivity index
T1 sequence (Q2PJ74 27-1145): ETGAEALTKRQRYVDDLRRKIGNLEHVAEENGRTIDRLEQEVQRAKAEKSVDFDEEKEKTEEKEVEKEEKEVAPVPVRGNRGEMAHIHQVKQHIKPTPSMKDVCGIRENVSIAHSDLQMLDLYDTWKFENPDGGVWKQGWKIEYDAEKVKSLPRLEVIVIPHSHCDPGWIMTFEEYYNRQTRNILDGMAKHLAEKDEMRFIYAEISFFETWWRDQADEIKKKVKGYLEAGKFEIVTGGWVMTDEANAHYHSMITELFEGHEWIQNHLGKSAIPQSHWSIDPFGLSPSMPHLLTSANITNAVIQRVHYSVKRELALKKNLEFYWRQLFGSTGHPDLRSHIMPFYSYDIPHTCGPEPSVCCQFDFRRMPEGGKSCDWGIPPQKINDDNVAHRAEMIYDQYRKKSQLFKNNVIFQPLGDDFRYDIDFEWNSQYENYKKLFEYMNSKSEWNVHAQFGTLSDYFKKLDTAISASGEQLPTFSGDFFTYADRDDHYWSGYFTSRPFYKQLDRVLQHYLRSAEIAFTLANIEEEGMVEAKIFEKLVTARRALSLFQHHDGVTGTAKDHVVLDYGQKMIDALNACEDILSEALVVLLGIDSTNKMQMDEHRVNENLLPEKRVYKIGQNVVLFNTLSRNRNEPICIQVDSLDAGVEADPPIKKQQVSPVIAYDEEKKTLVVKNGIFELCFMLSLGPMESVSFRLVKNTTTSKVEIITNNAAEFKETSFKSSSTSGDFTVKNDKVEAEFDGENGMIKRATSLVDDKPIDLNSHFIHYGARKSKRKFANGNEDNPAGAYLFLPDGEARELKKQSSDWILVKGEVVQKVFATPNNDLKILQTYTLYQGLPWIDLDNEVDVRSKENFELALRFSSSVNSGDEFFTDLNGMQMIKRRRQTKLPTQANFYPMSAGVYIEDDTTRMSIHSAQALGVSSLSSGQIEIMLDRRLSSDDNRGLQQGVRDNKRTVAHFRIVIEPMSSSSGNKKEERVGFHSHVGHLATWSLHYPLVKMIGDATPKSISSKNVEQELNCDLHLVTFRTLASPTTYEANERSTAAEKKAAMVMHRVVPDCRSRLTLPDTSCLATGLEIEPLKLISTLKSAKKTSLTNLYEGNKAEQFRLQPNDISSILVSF

[2] = target: T2, GMIIb (Golgi α-mannosidase) (Drosophila melanogaster, UniProt Q9VF33); assay: α-mannosidase inhibition assay with pNP-Man, GMIIb; type: biochemical; conditions: for SI^a = IC50(LManII)/IC50(GMIIb): selectivity index
T2 sequence (Q9VF33 31-1249): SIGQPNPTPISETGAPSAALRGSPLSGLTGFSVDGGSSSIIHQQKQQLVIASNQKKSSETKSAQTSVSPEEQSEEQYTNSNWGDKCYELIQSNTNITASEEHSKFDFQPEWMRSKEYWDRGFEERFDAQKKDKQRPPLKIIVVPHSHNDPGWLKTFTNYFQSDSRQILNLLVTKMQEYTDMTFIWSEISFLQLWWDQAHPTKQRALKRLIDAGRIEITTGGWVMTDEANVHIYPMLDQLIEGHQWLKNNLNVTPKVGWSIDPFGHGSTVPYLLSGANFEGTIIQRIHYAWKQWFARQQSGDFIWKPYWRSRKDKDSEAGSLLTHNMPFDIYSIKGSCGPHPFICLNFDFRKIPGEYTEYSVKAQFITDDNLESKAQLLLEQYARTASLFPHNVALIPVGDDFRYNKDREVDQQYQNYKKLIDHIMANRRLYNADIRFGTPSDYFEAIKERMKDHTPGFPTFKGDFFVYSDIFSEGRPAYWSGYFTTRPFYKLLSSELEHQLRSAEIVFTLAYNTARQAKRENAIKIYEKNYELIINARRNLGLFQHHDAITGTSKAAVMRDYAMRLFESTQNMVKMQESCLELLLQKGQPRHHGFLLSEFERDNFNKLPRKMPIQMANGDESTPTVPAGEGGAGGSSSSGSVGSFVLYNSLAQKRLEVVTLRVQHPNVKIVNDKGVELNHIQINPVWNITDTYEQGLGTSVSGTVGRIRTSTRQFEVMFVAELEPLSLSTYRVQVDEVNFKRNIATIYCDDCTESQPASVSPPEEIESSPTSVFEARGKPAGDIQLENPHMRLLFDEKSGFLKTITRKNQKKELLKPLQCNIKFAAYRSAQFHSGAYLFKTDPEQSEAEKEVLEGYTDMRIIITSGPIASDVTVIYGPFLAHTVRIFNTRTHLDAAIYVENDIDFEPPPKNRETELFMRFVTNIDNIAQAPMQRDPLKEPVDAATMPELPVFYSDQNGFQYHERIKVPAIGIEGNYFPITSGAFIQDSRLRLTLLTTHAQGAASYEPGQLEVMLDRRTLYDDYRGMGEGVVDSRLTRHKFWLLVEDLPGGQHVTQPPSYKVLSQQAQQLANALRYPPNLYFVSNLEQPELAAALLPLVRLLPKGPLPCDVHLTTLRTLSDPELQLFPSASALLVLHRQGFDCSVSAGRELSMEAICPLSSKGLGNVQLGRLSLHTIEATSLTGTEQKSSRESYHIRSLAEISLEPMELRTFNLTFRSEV

[3] = read-out: IC50 AMAN-2, 2 mM pNP-Man, pH 6.0
[4] = read-out: Ki AMAN-2, Dixon plots, pNP-Man 0.5-4 mM, pH 6.0
[5] = read-out: IC50 GMIIb, 2 mM pNP-Man, pH 6.0
[6] = read-out: Ki GMIIb, Dixon plots, pNP-Man 0.5-4 mM, pH 6.0

Row | SMILES | IC50 [1] [µM] | SI^b = IC50(JBMan)/IC50(AMAN-2) [1] | IC50 [2] [nM] | SI^a = IC50(LManII)/IC50(GMIIb) [2] | IC50 [1, 3] [µM] | Ki [1, 4] [nM] | IC50 [2, 5] [nM] | Ki [2, 6] [nM] | IC50 ([1]; read-out: IC50 AMAN-2, 2 mM pNP-Man, pH 6.0, listed as N-2-naphtylmethyl) [µM] | IC50 ([2]; read-out: IC50 GMIIb, 2 mM pNP-Man, pH 6.0, listed as N-2-naphtylmethyl) [nM] | Ki ([2]; read-out: Ki(GMIIb)) [nM] | Ki [1] [nM] | Ki [2] [nM]
1 | OC[C@@H]1[C@H](O)[C@H](O)CN1Cc1ccccc1 [Compound 4, N-Benzyl-1,4-dideoxy-1,4-imino-d-lyxitol] | 8.7 ± 0.1 | 124 | 11000 ± 1300 | 61 | – | – | – | – | – | – | – | – | –
2 | Cl.N=C(N)NCc1ccc(CN2C[C@@H](O)[C@@H](O)[C@H]2CO)cc1 [Compound 9, 1,4-Dideoxy-N-4-guanidinomethylbenzyl-1,4-imino-d-lyxitol hydrochloride] | – | 9 | – | 142 | 12.5 ± 0.1 | 10300 | 2400 ± 100 | 830 | – | – | – | – | –
3 | OCC1C(O)C(O)CN1Cc1ccc(I)cc1 (stereo not drawn) [Compound 16, 1,4-Dideoxy-1,4-imino-N-4-iodobenzyl-d-lyxitol] | – | 269 | – | 105 | 3.5 ± 0.1 | – | 4400 ± 200 | – | – | – | – | – | –
4 | OC[C@@H]1[C@H](O)[C@H](O)CN1Cc1ccc2ccccc2c1 [Compound 17, 1,4-Dideoxy-1,4-imino-N-(naphthalen-2-ylmethyl)-d-lyxitol] | – | 812 | – | 111 | 2.4 ± 0.1 | – | 7600 ± 1100 | – | 7.6 | 2400 | – | – | –
5 | OCC1C(O)C(O)CN1CCc1cccc2ccccc12 (stereo not drawn) [Compound 18, 1,4-Dideoxy-1,4-imino-N-(2-(naphthalen-1-yl)ethyl)-d-lyxitol] | – | 86 | – | 27 | 0.21 ± 0.1 | 150 | 450 ± 80 | 160 | – | – | 150 | – | –
6 | OC[C@@H]1[C@H](O)[C@H](O)CN1CC1CCCCC1 [Compound 19, N-Cyclohexylmethyl-1,4-dideoxy-1,4-imino-d-lyxitol] | 17.3 ± 0.1 | 75 | 3500 ± 300 | 54 | – | – | – | – | – | – | – | – | –
7 | OC[C@@H]1[C@H](O)[C@H](O)CN1CC1CCOCC1 [Compound 20] | – | 30 | – | 63 | 84.3 ± 0.1 | – | 15500 ± 500 | – | – | – | – | – | –
8 | CCCCCCCCCCCCN1C[C@@H](O)[C@@H](O)[C@H]1CO [Compound 21, 1,4-Dideoxy-N-dodecyl-1,4-imino-d-lyxitol] | 2.3 ± 0.1 | 9 | 400 ± 50 | 30 | – | – | – | – | – | – | – | – | –
9 | Cl.N=C(N)NCCCCCCCCCCN1C[C@@H](O)[C@@H](O)[C@H]1CO [Compound 25, 1,4-Dideoxy-N-(10-guanidinodecyl)-1,4-imino-d-lyxitol hydrochloride] | 2.7 ± 0.1 | 3 | 450 ± 100 | 18 | – | – | – | – | – | – | – | – | –
10 | Cl.N=C(N)CCCCCCCCCN1C[C@@H](O)[C@@H](O)[C@H]1CO [Compound 26, N-(9-amidinononyl)-1,4-dideoxy-1,4-imino-d-lyxitol hydrochloride] | 1.4 ± 0.1 | 3 | 190 ± 20 | 35 | – | – | – | – | – | – | – | 780 | 40
